Columns and labels:
full length GRK5 = target: T1, full length GRK5 (Homo sapiens, UniProt P34947); assay: IC50 determination of compounds inhibiting GRK5 by ADP Glo Kinase Assay technology (Promega); type: biochemical; settings: 20 nM GRK5, 18.7 µM ATP, 10 µM casein, 12 concentrations, triplicates, read-out: GRK5 IC50
T1 construct: 6/2 fold concentrated full length GRK5 (Millipore, #14-714) in reaction buffer is added to each well; purchased Millipore 14-714

GRK5 = target: T2, GRK5 (Homo sapiens, UniProt P34947); assay: IC50 determination of compounds inhibiting GRK5 by Millipore KinaseProfiler (radiometric filtration binding assay); type: biochemical; settings: 2 mg/mL casein, 40 minutes at room temperature
T2 construct: purchased Millipore
T2 sequence (P34947 whole entry): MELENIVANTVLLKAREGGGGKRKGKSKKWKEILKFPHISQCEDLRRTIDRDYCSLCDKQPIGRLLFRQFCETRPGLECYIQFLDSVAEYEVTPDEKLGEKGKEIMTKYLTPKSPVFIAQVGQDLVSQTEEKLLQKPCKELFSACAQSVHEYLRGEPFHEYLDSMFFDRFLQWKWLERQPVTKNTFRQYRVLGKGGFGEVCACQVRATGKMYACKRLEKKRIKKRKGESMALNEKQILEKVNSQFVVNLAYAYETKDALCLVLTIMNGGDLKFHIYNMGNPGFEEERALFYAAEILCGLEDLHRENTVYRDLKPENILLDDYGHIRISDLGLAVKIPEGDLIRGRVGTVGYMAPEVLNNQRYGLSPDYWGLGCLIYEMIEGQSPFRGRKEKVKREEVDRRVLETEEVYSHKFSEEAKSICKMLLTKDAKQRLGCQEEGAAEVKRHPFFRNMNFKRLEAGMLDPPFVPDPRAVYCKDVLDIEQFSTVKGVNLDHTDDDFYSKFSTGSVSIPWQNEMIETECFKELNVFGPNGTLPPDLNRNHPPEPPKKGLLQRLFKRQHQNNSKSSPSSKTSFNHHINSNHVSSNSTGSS
Description: IC50 values are determined by a radiometric based filtration binding assay, namely Millipore KinaseProfiler™. GRK5 is incubated with 8 mM MOPS pH 7.0, 0.2 mM EDTA, 2 mg/mL casein, 10 mM MgAcetate and […] (specific activity approx. 500 cpm/pmol, concentration as required). The reaction is initiated by the addition of the MgATP mix. After incubation for 40 minutes at room temperature, the reaction is stopped by the addition of 3 % phosphoric acid solution. 10 µL of the reaction is then spotted onto a P30 filtermat and washed three times for 5 minutes in 75 mM phosphoric acid and once in methanol prior to drying and scintillation counting.

T1 sequence (P34947 whole entry): as above

Row | IC50 (full length GRK5) [µM] | IC50 (GRK5) [µM] | Structure (SMILES)
1 | < 5 |  | Cc1[nH]c(/C=C2\C(=O)Nc3ccc(C(=O)O)cc32)c(C)c1C(=O)NCCN1CCCC1 [Compound 2]
2 | < 5 |  | CC[C@@H](NC(=O)c1ccc2c(c1)/C(=C/c1[nH]c(C)c(C(=O)NCCN3CCCC3)c1C)C(=O)N2)c1ccccc1 [Compound 6, (3Z)-3-({3,5-dimethyl-4-[(2-pyrrolidin-1-ylethyl)carbamoyl]-1H-pyrrol-2-yl}methylene)-2-oxo-N-[(1R)-1-phenylpropyl]indoline-5-carboxamide]
3 | 5 to 20 |  | CC[C@@H](NC(=O)c1ccc2c(c1)/C(=C/c1[nH]c(C)c(C(=O)N3CCN(C)CC3)c1C)C(=O)N2)c1ccccc1 [Compound 7, (3Z)-3-({3,5-dimethyl-4-[(4-methylpiperazin-1-yl)carbonyl]-1H-pyrrol-2-yl}methylene)-2-oxo-N-[(1R)-1-phenylpropyl]indoline-5-carboxamide]
4 | < 5 |  | CCC(NC(=O)c1ccc2c(c1)/C(=C/c1[nH]c(C)c(C(=O)NCCN3CCCC3)c1C)C(=O)N2)c1ccc(F)c(F)c1 (centres unmarked) [Compound 10, (3Z)-N-[1-(3,4-difluorophenyl)propyl]-3-({3,5-dimethyl-4-[(2-pyrrolidin-1-ylethyl)carbamoyl]-1H-pyrrol-2-yl}methylene)-2-oxoindoline-5-carboxamide]
5 | < 5 |  | CCC(NC(=O)c1ccc2c(c1)/C(=C/c1[nH]c(C)c(C(=O)NCCN3CCCC3)c1C)C(=O)N2)c1cccc(Cl)c1 (centres unmarked) [Compound 11, (3Z)-N-[1-(3-chlorophenyl)propyl]-3-({3,5-dimethyl-4-[(2-pyrrolidin-1-ylethyl)carbamoyl]-1H-pyrrol-2-yl}methylene)-2-oxoindoline-5-carboxamide]
6 | < 5 | < 5 | CCC(NC(=O)c1ccc2c(c1)/C(=C/c1[nH]c(C)c(C(=O)N3CCN(C)CC3)c1C)C(=O)N2)c1ccc(Cl)cc1 (centres unmarked) [Compound 12, (3Z)-N-[1-(4-chlorophenyl)propyl]-3-({3,5-dimethyl-4-[(4-methylpiperazin-1-yl)carbonyl]-1H-pyrrol-2-yl}methylene)-2-oxoindoline-5-carboxamide]
7 | < 5 |  | CCC(NC(=O)c1ccc2c(c1)/C(=C/c1[nH]c(C)c(C(=O)NCCN3CCCC3)c1C)C(=O)N2)c1ccc(Cl)cc1 (centres unmarked) [Compound 13, (3Z)-N-[1-(4-chlorophenyl)propyl]-3-({3,5-dimethyl-4-[(2-pyrrolidin-1-ylethyl)carbamoyl]-1H-pyrrol-2-yl}methylene)-2-oxoindoline-5-carboxamide]
8 | < 5 |  | Cc1[nH]c(/C=C2\C(=O)Nc3ccc(C(=O)N[C@H](C)c4ccccc4)cc32)c(C)c1C(=O)N1CCCCC1 [Compound 14, (3Z)-3-{[3,5-dimethyl-4-(piperidin-1-ylcarbonyl)-1H-pyrrol-2-yl]methylene}-2-oxo-N-[(1R)-1-phenylethyl]indoline-5-carboxamide]
9 | < 5 |  | Cc1[nH]c(/C=C2\C(=O)Nc3ccc(C(=O)N[C@H](C)c4ccccc4)cc32)c(C)c1C(=O)N1CCN(C)CC1 [Compound 15, (3Z)-3-({3,5-dimethyl-4-[(4-methylpiperazin-1-yl)carbonyl]-1H-pyrrol-2-yl}methylene)-2-oxo-N-[(1R)-1-phenylethyl]indoline-5-carboxamide]
10 |  | < 5 | Cc1[nH]c(/C=C2\C(=O)Nc3ccc(C(=O)N[C@H](C)c4ccccc4)cc32)c(C)c1C(=O)N1CCC[C@H]1CN1CCCC1 [Compound 16, (3Z)-3-[(3,5-dimethyl-4-{[(2S)-2-(pyrrolidin-1-ylmethyl)pyrrolidin-1-yl]carbonyl}-1H-pyrrol-2-yl)methylene]-2-oxo-N-[(1R)-1-phenylethyl]indoline-5-carboxamide]
11 | < 5 |  | COc1ccc([C@@H](C)NC(=O)c2ccc3c(c2)/C(=C/c2[nH]c(C)c(C(=O)N4CCN(C)CC4)c2C)C(=O)N3)cc1 [Compound 21, (3Z)-3-({3,5-dimethyl-4-[(4-methylpiperazin-1-yl)carbonyl]-1H-pyrrol-2-yl}methylene)-N-[(1R)-1-(4-methoxyphenyl)ethyl]-2-oxoindoline-5-carboxamide]
12 | 5 to 20 | 5 to 20 | Cc1[nH]c(/C=C2\C(=O)Nc3ccc(C(=O)N[C@@H]4CCc5ccccc54)cc32)c(C)c1C(=O)N1CCC[C@@H]1CN1CCCC1 [Compound 30, (3Z)-N-[(1R)-2,3-dihydro-1H-inden-1-yl]-3-[(3,5-dimethyl-4-{[(2R)-2-(pyrrolidin-1-ylmethyl)pyrrolidin-1-yl]carbonyl}-1H-pyrrol-2-yl)methylene]-2-oxoindoline-5-carboxamide]
13 | < 5 |  | Cc1ccc([C@@H](C)NC(=O)c2ccc3c(c2)/C(=C/c2[nH]c(C)c(C(=O)N4CCN(C)CC4)c2C)C(=O)N3)cc1 [Compound 32, (3Z)-3-({3,5-dimethyl-4-[(4-methylpiperazin-1-yl)carbonyl]-1H-pyrrol-2-yl}methylene)-N-[(1R)-1-(4-methylphenyl)ethyl]-2-oxoindoline-5-carboxamide]
14 | < 5 | < 5 | CC[C@@H](NC(=O)c1ccc2c(c1)/C(=C/c1[nH]c(C)c(C(=O)N3CCC[C@H]3CN3CCCC3)c1C)C(=O)N2)c1ccccc1 [Compound 46, (3Z)-3-[(3,5-dimethyl-4-{[(2S)-2-(pyrrolidin-1-ylmethyl)pyrrolidin-1-yl]carbonyl}-1H-pyrrol-2-yl)methylene]-2-oxo-N-[(1R)-1-phenylpropyl]indoline-5-carboxamide]
15 | 5 to 20 | 5 to 20 | CC[C@H](NC(=O)c1ccc2c(c1)/C(=C/c1[nH]c(C)c(C(=O)N3CCC[C@H]3CN3CCCC3)c1C)C(=O)N2)c1ccccc1 [Compound 47, (3Z)-3-[(3,5-dimethyl-4-{[(2S)-2-(pyrrolidin-1-ylmethyl)pyrrolidin-1-yl]carbonyl}-1H-pyrrol-2-yl)methylene]-2-oxo-N-[(1S)-1-phenylpropyl]indoline-5-carboxamide]
16 | < 5 | < 5 | CC[C@@H](NC(=O)c1ccc2c(c1)/C(=C/c1[nH]c(C)c(C(=O)N3CCC[C@@H]3CN3CCCC3)c1C)C(=O)N2)c1ccccc1 [Compound 48, (3Z)-3-[(3,5-dimethyl-4-{[(2R)-2-(pyrrolidin-1-ylmethyl)pyrrolidin-1-yl]carbonyl}-1H-pyrrol-2-yl)methylene]-2-oxo-N-[(1R)-1-phenylpropyl]indoline-5-carboxamide]
17 | 5 to 20 |  | Cc1cccc(C(C)NC(=O)c2ccc3c(c2)/C(=C/c2[nH]c(C)c(C(=O)N4CCN(C)CC4)c2C)C(=O)N3)c1 (centres unmarked) [Compound 51, (3Z)-3-({3,5-dimethyl-4-[(4-methylpiperazin-1-yl)carbonyl]-1H-pyrrol-2-yl}methylene)-N-[1-(3-methylphenyl)ethyl]-2-oxoindoline-5-carboxamide]
18 | > 30 | > 30 | CC[C@H](NC(=O)c1ccc2c(c1)/C(=C/c1[nH]c(C)c(C(=O)N3CCC(N4CCN(C)CC4)CC3)c1C)C(=O)N2)c1ccccc1 [Compound 52, (3Z)3-[(3,5-dimethyl-4-{[4-(4-methylpiperazin-1-yl)piperidin-1-yl]carbonyl}-1H-pyrrol-2-yl)methylene]-2-oxo-N-[(1S)-1-phenylpropyl]indoline-5-carboxamide]
19 | 5 to 20 | < 5 | CC[C@@H](NC(=O)c1ccc2c(c1)/C(=C/c1[nH]c(C)c(C(=O)N3CCC(N4CCN(C)CC4)CC3)c1C)C(=O)N2)c1ccccc1 [Compound 53, (3Z)-3-[(3,5-dimethyl-4-{[4-(4-methylpiperazin-1-yl)piperidin-1-yl]carbonyl}-1H-pyrrol-2-yl)methylene]-2-oxo-N-[(1R)-1-phenylpropyl]indoline-5-carboxamide]
20 | < 5 |  | CC[C@@H](NC(=O)c1ccc2c(c1)/C(=C/c1[nH]c(C)c(C(=O)NCCN(CC)CC)c1C)C(=O)N2)c1ccccc1 [Compound 61, (3Z)-3-[(4-{[2-(diethylamino)ethyl]carbamoyl}-3,5-dimethyl-1H-pyrrol-2-yl)methylene]-2-oxo-N-[(1R)-1-phenylpropyl]indoline-5-carboxamide]
21 | < 5 |  | Cc1[nH]c(/C=C2\C(=O)Nc3ccc(C(=O)N[C@H](C)c4ccc(Cl)cc4)cc32)c(C)c1C(=O)N1CCCC1 [Compound 67, (3Z)-N-[(1R)-1-(4-chlorophenyl)ethyl]-3-{[3,5-dimethyl-4-(pyrrolidin-1-ylcarbonyl)-1H-pyrrol-2-yl]methylene}-2-oxoindoline-5-carboxamide]
22 | < 5 |  | CC[C@@H](NC(=O)c1ccc2c(c1)/C(=C/Nc1ccc(CN3CCCCC3)cc1)C(=O)N2)c1ccccc1 [Compound 69, (3Z)-2-oxo-N-[(1R)-1-phenylpropyl]-3-({[4-(piperidin-1-ylmethyl)phenyl]amino}methylene)-indoline-5-carboxamide]
23 | < 5 |  | C[C@@H](NC(=O)c1ccc2c(c1)/C(=C/Nc1ccc(CN3CCCCC3)cc1)C(=O)N2)c1ccccc1 [Compound 78, (3Z)-2-oxo-N-[(1R)-1-phenylethyl]-3-({[4-(piperidin-1-ylmethyl)phenyl]amino}methylene)indoline-5-carboxamide]
24 | < 5 |  | COc1cccc([C@@H](C)NC(=O)c2ccc3c(c2)/C(=C/Nc2ccc(CN4CCCCC4)cc2)C(=O)N3)c1 [Compound 79, (3Z)-N-[(1R)-1-(3-methoxyphenyl)ethyl]-2-oxo-3-({[4-(piperidin-1-ylmethyl)phenyl]amino}methylene)indoline-5-carboxamide]
25 | < 5 |  | C[C@@H](NC(=O)c1ccc2c(c1)/C(=C/Nc1ccc(CN3CCCCC3)cc1)C(=O)N2)c1cccc(Cl)c1 [Compound 80, (3Z)-N-[(1R)-1-(3-chlorophenyl)ethyl]-2-oxo-3-({[4-(piperidin-1-ylmethyl)phenyl]amino}methylene)indoline-5-carboxamide]
